We go through 1 molecule from article PMC2898210 (ACS medicinal chemistry letters, 2010).

The assay has as its target polo-box domain (PBD) of human polo-like kinase 1 (Plk1) (Homo sapiens, UniProt P53350). As to the kind of experiment: ELISA-based PBD competition assay against p-T78 peptide of PBIP1. It counts as binding.

Chain of polo-box domain (PBD) of human polo-like kinase 1 (Plk1) (P53350 367-603 limits assumed): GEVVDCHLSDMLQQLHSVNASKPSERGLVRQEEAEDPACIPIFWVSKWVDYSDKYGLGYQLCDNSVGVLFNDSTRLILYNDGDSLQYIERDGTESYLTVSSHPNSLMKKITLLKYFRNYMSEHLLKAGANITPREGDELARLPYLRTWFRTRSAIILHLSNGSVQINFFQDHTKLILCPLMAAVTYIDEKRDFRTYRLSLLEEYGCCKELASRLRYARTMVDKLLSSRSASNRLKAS

For the molecule `O=c1c(O)cccc2cc(O)c(O)c(O)c12` [compound 2, Purpurogallin], the Kd (as a rule, the concentration at which binding is half-saturated) is ~2700 nM.
